# Earlier results as cited in patent US20170232026A1, “PHARMACEUTICAL COMPOSITION IN […] FOR VETERINARY USE AS A PROMOTER SYSTEM AND BIO-ADHESIVE IN ANT[…], AND METHOD FOR THE PRODUCTION THEREOF” (UNIVERSIDAD NACIONAL AUTONOMA DE MEXICO, priority 2014, published 2017).
compound,measurement,setting,value
"CC[C@H](C)[C@H]1O[C@]2(CC[C@@H]1C)C[C@@H]1C[C@@H](C/C=C(\C)[C@@H](O[C@H]3C[C@H](OC)[C@@H](O[C@H]4C[C@H](OC)[C@@H](O)[C@H](C)O4)[C@H](C)O3)[C@@H](C)/C=C/C=C3\CO[C@@H]4[C@H](O)C(C)=C[C@@H](C(=O)O1)[C@]34O)O2 [Ivermectin, 22, 23-dihydroavermectin B1a]",solubility in ethanol at 95%,ethanol at 95%,soluble
same,solubility in methanol,methanol,soluble
same,solubility in water,water,insoluble
